The record followed here is patent US5420135A, “Substituted quinoline derivatives” (Smith Kline & French Laboratories Limited, priority 1989, dated 1995).

The assay deals with isolated rat osteoclasts. The assay is described as follows: Bone resorption by isolated rat osteoclasts on cortical bone slices. It counts as cell-based. The settings on record: Osteoclast, 18 hours, Mean ± SEM, n = 12, control 100 ± 27. As to the method: Bone resorption was measured by the actions of isolated rat osteoclasts on cortical bone slices (Zaidi et al. Quarterly Journal of Experimental Physiology 1988 73:471-485). Newborn Wistar rats were killed by decapitation and their femora and tibiae removed. Osteoclasts were mechanically disaggregated by curetting the bones into medium followed by agitation with a pipette. Osteoclasts were separated from other cells by sedimentation onto bone slices (15 minutes, 37°) after which the slices were removed and gently washed. The bone slices were then incubated in the presence of test compounds (37°, 10% humidified CO2, 18 hours) and fixed with glutaraldehyde. The degree of bone resorption was then assessed by the area of erosions produced by the osteoclasts using scanning electron microscopy. Data were meaned from measurements of 6 bone slices in each of two independent experiments.
Test compounds were dissolved in ethanol which was also added to control incubations (1%) in the absence of compound.

`Cc1ccccc1-n1nnc2cnc3ccccc3c21` [Example 2, 1-(2-Methylphenyl)triazolo[4,5-c]quinoline] came in with an activity at 10 µM (Conc. 10 μM) of 49 ± 20%. In addition, the activity at 100 µM (Conc. 100 μM) was 0%.
